This is an account of results in patent publication US11304945B2, “Pharmaceutical composition and method for preparing same” (Jiangsu Hengrui Medicine Co., Ltd., priority 2017, dated 2022).

The structures appear in SMILES notation.

The data set can be described thus: Pharmacokinetics (PK) study in animals. Type of data set: in vivo. Conditions: both sexes, dog; beagle dogs, oral, 30 mg/kg, plasma. As for the experimental part:
12 beagle dogs were grouped into two groups (6 beagle dogs per group, half male and half female). The beagle dogs were fasted for more than 12 h before the experiment, and food was provided 4 h after the drug administration on the day of the experiment. Water was not deprived during the experiment. The crystal form of compound A and the solid dispersion of compound A, respectively (the ratio of compound A to hydroxypropyl methylcellulose acetate succinate was 1:1, according to the formulation of Experimental Example 3), were administered orally to the two groups of animals with an administration dose of 30 mg/kg. 0.6 mL of blood was taken from climb veins before administration and 0.25, 0.5, 1.0, 2.0, 4.0, 6.0, 8.0, 12, 24 and 72 h after administration. The blood was stored in an ethylenediaminetetraacetic acid (EDTA) anticoagulant tube, and centrifuged for 10 minutes at 3500 rpm (4° C.) to separate the blood plasma. The plasma was stored at −70° C.
The concentration of API in the blood plasma and the administrated solution was determined by liquid chromatography-tandem mass spectrometry (LC/MS/MS). The pharmacokinetic parameters of beagle dogs after drug administration were calculated with the resulting plasma concentration using the non-compartmental model of Phoenix WinNonlin 6.4 software.

For `CC#CC(=O)N1CC[C@@H](n2cc(-c3ccc(Oc4c(F)cccc4F)cc3)c3c(N)n[nH]c(=O)c32)C1` [Crystal form of compound A, (R)-4-amino-1-(1-(but-2-ynoyl)pyrrolidin-3-yl)-3-(4-(2,6-difluorophenoxy)phenyl)-1,6-dihydro-7H-pyrrolo[2,3-d]pyridazin-7-one], the AUC(0-inf) (commonly the area under the concentration-time curve extrapolated to infinity) was 3870 ± 3170 ng·h/mL; the Cmax (in general, the maximum level reached in the sampled fluid or tissue) was 630 ± 530 ng/mL; the half-life (as a rule, the time in which the quantity being followed falls by half) was 3.02 ± 0.65 h.
